The numbers were not newly measured in US20230078230A1, “METHODS FOR THE PRODUCTION OF COMMITTED CARDIAC PROGENITOR CELLS” (FUJIFILM Cellular Dynamics, Inc., priority 2021, published 2023), which cites them from elsewhere.

In one series the test system is ROCK1/ROCK2. The settings on record: ROCK1/ROCK2, competing with ATP.
Series [1] deals with pluripotent stem cell-derived cardiomyocytes.

On to `C[C@@H](N)[C@H]1CC[C@H](C(=O)Nc2ccncc2)CC1` [Y-27632], for which, in the series with ROCK1/ROCK2, the IC50 is 800 nM.
As to `COc1ccc([C@@H]2Sc3ccccc3N(CCN(C)C)C(=O)[C@@H]2OC(C)=O)cc1` [diltiazem], the “effect on contractile activity” value in series [1] is on record as “inhibits contractile activity in a dose-dependent manner”.
For the compound `CC(C)NCC(O)c1ccc(O)c(O)c1` (stereo not shown) [isoprenaline], the “effect on contractile activity” value in series [1] is “positive chronotropic effect”.
Consider `CNC[C@H](O)c1cccc(O)c1` [phenylephrine], for which the “effect on contractile activity” value in series [1] was “positive chronotropic effect”.

For orientation: IC50 means the concentration that gives 50% inhibition.
